# Results from patent US8895752B2, “Alkylsulfonyl-substituted thiazolide compounds” (priority 2007, dated 2014).
# Read-outs that look alike come from different tables or passages of the source.
# Key:
# [1] = test system: HCV replicon, sub-genomic CON1, genotype 1b; assay: 3-day HCV replicon assay in AVA5 cells (intracellular HCV RNA, blot hybridization); format: cell-based, Hepatitis C Virus; settings: for Selectivity Index / EC50 / EC90: Genotype 1b replicon; for Selectivity Index: CC50/EC50; for EC50 / EC90: 3 days, first compound listed for combinations
# Description: (§1) Antiviral activity of test compounds was assessed in a 3-day assay using the stably-expressing HCV replicon cell line, AVA5 (sub-genomic CON1, genotype 1b) (Blight et al., 2000) maintained as sub-confluent cultures on 96-well plates as previously described (Okuse et al., 2005). Antiviral activity was determined by blot hybridization analysis of intracellular HCV RNA (normalized to the level of cellular B-actin RNA in each culture sample) and cytotoxicity was assessed by neutral red dye uptake after 3 days of treatment. Additional studies were performed using Huh7 cells containing another HCV replicon, H/FL-Neo, a genotype 1a full length construct (Blight et al., 2003). For studies involving human serum, standard culture medium (which contains 10% fetal bovine serum) and assay conditions were maintained.
# (§2) EC50, EC90 and CC50 values (±standard deviations [S.D.]) were calculated by linear regression analysis using data combined from all treated cultures (Korba and Gerin, 1992; Okuse et al., 2005). […] Selectivity index (S.I.) was calculated as CC50/EC90 for HBV assays and CC50/EC50 for HCV assays. EC90 values were used for calculation of the S.I. in HBV assays since at least a […] depression of HBV DNA levels is typically required to achieve statistical significance in this assay system (Korba and Gerin, 1992). For combination treatments, EC50, EC90, CC50 and S.I. are presented for the first compound listed. The molar ratio of the compounds in each combination is also indicated.
# [2] = Cytotoxicity by neutral red dye uptake in AVA5 cells; format: cell-based; settings: human, Genotype 1b replicon
# [3] = test system: HCV replicon H/FL-Neo, genotype 1a full length; assay: HCV replicon assay in Huh7 cells containing H/FL-Neo; format: cell-based, Hepatitis C Virus; settings: for EC50 / EC90: Hepatitis C virus, Huh-7
# Description: as §1, §2
# [4] = Cytotoxicity by neutral red dye uptake in Huh7 cells containing H/FL-Neo; format: cell-based; settings: human; Genotype 1a replicon
# HCV replication = assay: HCV replicon assay, 6 days total duration, NTZ monotherapy pre-treatment and combination therapy; format: cell-based; settings: Hepatitis C virus, 144 h, first named drug for combinations
# Description: as §1, with “Antiviral activity of test compounds was assessed in a 3-day assay using the stably-expressing” left out
# as §2
# HBV = HBV antiviral assay in confluent 2.2.15 cell cultures (HBV DNA, quantitative blot hybridization); format: cell-based, Hepatitis B Virus
# Description: EC50, EC90 and CC50 values (±standard deviations [S.D.]) were calculated by linear regression analysis using data combined from all treated cultures (Korba and Gerin, 1992; Okuse et al., 2005). […] Selectivity index (S.I.) was calculated as CC50/EC90 for HBV assays and CC50/EC50 for HCV assays. EC90 values were used for calculation of the S.I. in HBV assays since at least a 3-fold depression of HBV DNA levels is typically required to achieve statistical significance in this assay system (Korba and Gerin, 1992).
# [5] = Cytotoxicity by neutral red dye uptake in 2.2.15 cells; settings: human
# Description: (§3) HBV antiviral assays were conducted as previous described (Korba and Gerin, 1992).
# as §2
# HCV replicon = assay: Primary HCV replicon cell assay; format: cell-based, Hepatitis C Virus; settings: Hepatitis C virus
# Description: as §1, §2
# [6] = Primary HCV replicon cell assay, cytotoxicity; settings: human, HCV replicon cells (primary assay), CC50, primary assay
# Description: as §1, §2
# HCV replicon genotype 1B = assay: Secondary HCV replicon cell assay, genotype 1B; format: cell-based, Hepatitis C Virus
# Excerpt: (§4) Table 10 presents data from the secondary HCV replicon cell assays using genotypes 1B and 1A.
# [7] = test system: HCV replicon cells, genotype 1B; assay: Secondary HCV replicon cell assay, genotype 1B, cytotoxicity; format: cell-based
# Excerpt: as §4
# HCV replicon genotype 1A = assay: Secondary HCV replicon cell assay, genotype 1A; format: cell-based, Hepatitis C Virus
# Excerpt: as §4
# [8] = test system: HCV replicon cells, genotype 1A; assay: Secondary HCV replicon cell assay, genotype 1A, cytotoxicity; format: cell-based
# Excerpt: as §4
# 2.2.15 cells = assay: Cytotoxicity by neutral red dye uptake in 2.2.15 cells
# Description: as §3, §2
# Wild-type HBV = assay: 5-day transient transfection assay in Huh7 cells, intracellular HBV RI by Southern blot; format: cell-based, Hepatitis B Virus
# HBV Mutant L180M/M204V = assay: as above; format: cell-based, Hepatitis B Virus
# Description: (§5) Activity against LMV-resistant (Allen et al., 1998) and ADV-resistant (Angus et al., 2003) HBV mutants was performed in a 5-day assay using a transient transfection method as previously described (Iyer et al., 2004). Antiviral activity was determined by quantitative Southern blot hybridization of intracellular HBV DNA replication intermediates (HBV RI).
# HBV Mutant L180M = assay: as above; format: cell-based, Hepatitis B Virus
# Description: as §5
# HBV Mutant M204I = assay: as above; format: cell-based, Hepatitis B Virus
# Description: as §5
# HBV Mutant M204V = assay: as above; format: cell-based, Hepatitis B Virus
# Description: as §5
# HBV Mutant N236T = assay: as above; format: cell-based, Hepatitis B Virus
# Description: as §5
# HBV RNA = assay: Intracellular HBV RNA by quantitative northern blot hybridization in 2.2.15 cells; format: cell-based, Hepatitis B Virus
# Description: (§6) Cultures of 2.2.15 cells were treated under standard procedures and semi-quantitative EIA-based analysis of HBV proteins was performed as previously described (Korba and Gerin, 1995), except that HBeAg was analyzed ETI-EBK Plus® (DiaSorin, Inc., Stillwater, Minn. USA). Samples were diluted (2 to 10-fold) to bring levels into the dynamic response ranges of the EIA's. HBsAg, and HBeAg were analyzed from culture medium samples and HBcAg was analyzed from intracellular lysates. Intracellular HBV RNA was assessed by quantitative northern blot hybridization (Korba and Gerin, 1995).
# HBeAg = assay: Semi-quantitative EIA of HBV proteins in 2.2.15 culture medium; format: cell-based, Hepatitis B Virus
# Description: as §6
# HBsAg = assay: as above; format: cell-based, Hepatitis B Virus
# Description: as §6
# HBcAg = assay: Semi-quantitative EIA of HBV proteins in 2.2.15 intracellular lysates; format: cell-based, Hepatitis B Virus
# Description: as §6
# [9] = oral 500 mg tablet; cited from earlier work
# [10] = test system: LMV-resistant and ADV-resistant HBV mutants; assay: Activity against drug-resistant HBV mutants, transient transfection in Huh7 cells (overall statement); format: cell-based, Hepatitis B Virus; settings: all drug-resistant viruses tested
# Description: as §5
# AVA5 cells = assay: Cytotoxicity by neutral red dye uptake in AVA5 cells; format: cell-based; settings: Genotype 1b replicon, 3 days
# [11] = AVA5 cells (HCV replicon, sub-genomic CON1)
# [12] = Hepatitis B virus, read-out: Intracellular HBV RI EC50
# [13] = Hepatitis B virus, 2.2.15 cells, nine daily doses, read-out: Extracellular virion DNA EC50
smiles,measurement,setting,value
"C[C@@]1(O)[C@H](O)[C@@H](CO)O[C@H]1n1ccc(N)nc1=O [2′CmeC, 2′-C-methyl cytidine]",Selectivity Index,[1],>188
same,EC50,"[1]; Hepatitis C virus, Ava5, 72 h",1.6 ± 0.2 µM
same,EC90,"[1]; Hepatitis C virus, Ava5, 72 h",8.3 ± 0.7 µM
same,CC50 at 3 days,[2]; [11],> 300 µM
same,Selectivity Index,"[3]; Genotype 1a replicon, CC50/EC50",>167
same,EC50,[3]; Genotype 1a replicon,1.8 ± 0.2 µM
same,EC90,[3]; Genotype 1a replicon,8.1 ± 0.8 µM
same,CC50 at 3 days,[4],> 300 µM
same,EC50,HCV replication,1.3 ± 0.2 µM
same,EC90,HCV replication,5.8 ± 0.9 µM
"CS(=O)(=O)c1cnc(NC(=O)c2ccccc2O)s1 [Compound 6, 2-hydroxy-N-(5-(methylsulfonyl)thiazol-2-yl)benzamide]",EC50,HBV; [12],> 10 µM
same,EC50,HBV; [13],> 10 µM
same,EC90,"HBV; Hepatitis B virus, 2.2.15 cells, nine daily doses, read-out: Extracellular virion DNA EC90",> 10 µM
same,EC90,"HBV; Hepatitis B virus, 2.2.15 cells, nine daily doses, read-out: Intracellular HBV RI EC90",> 10 µM
same,CC50 at 9 days,[5],> 100 µM
same,Selectivity Index,[1],74
same,EC50,"[1]; Hepatitis C virus, Ava5, 72 h",0.04 ± 0.005 µM
same,EC90,"[1]; Hepatitis C virus, Ava5, 72 h",0.59 ± 0.07 µM
same,activity against HCV,[1]; among the other thiazolides,exhibited activity
same,CC50 at 3 days,[2]; [11],2.8 ± 0.3 µM
same,EC50,HCV replicon,1.5 µM
same,EC90,HCV replicon,5.2 µM
same,CC50 at 3 days,[6],43 µM
same,EC50,HCV replicon genotype 1B,0.89 µM
same,EC90,HCV replicon genotype 1B; Hepatitis C virus,8.8 µM
same,CC50,[7],> 10 µM
same,EC50,HCV replicon genotype 1A,0.8 µM
same,EC90,HCV replicon genotype 1A,3.4 µM
same,CC50,[8],> 10 µM
"CC(=O)Oc1ccccc1C(=O)Nc1ncc([N+](=O)[O-])s1 [NTZ, nitazoxanide]",EC50,HBV; [12],0.59 ± 0.07 µM
same,EC50,"HBV; Hepatitis B virus, 2.2.15 cells, Table 3 experiment, read-out: HBV R.I. EC50",0.73 ± 0.06 µM
same,EC90,"HBV; Hepatitis B virus, 2.2.15 cells, Table 3 experiment, read-out: HBV R.I. EC90",2.2 ± 0.3 µM
same,EC50,"HBV; Hepatitis B virus, 2.2.15 cells, Table 3 experiment, read-out: Virion production EC50",0.19 ± 0.02 µM
same,EC90,"HBV; Hepatitis B virus, 2.2.15 cells, Table 3 experiment, read-out: Virion production EC90",0.58 ± 0.04 µM
same,EC50,HBV; [13],0.12 ± 0.02 µM
same,CC50 at 9 days,[5],> 100 µM
same,cytotoxicity in rapidly dividing cultures of 2.2.15 cells,2.2.15 cells; rapidly dividing cultures,20 ± 1.3 µM
same,EC50,"Wild-type HBV; Hepatitis B virus, Huh-7",0.21 ± 0.03 µM
same,EC90,"Wild-type HBV; Hepatitis B virus, Huh-7, Wild-type, Huh7 transient transfection",0.77 ± 0.09 µM
same,EC50,"HBV Mutant L180M/M204V; Hepatitis B virus, Huh-7",0.18 ± 0.02 µM
same,EC90,"HBV Mutant L180M/M204V; Hepatitis B virus, Huh-7",0.72 ± 0.09 µM
same,EC50,"HBV Mutant L180M; Hepatitis B virus, Huh-7",0.23 ± 0.03 µM
same,EC90,"HBV Mutant L180M; Hepatitis B virus, Huh-7",0.8 ± 0.09 µM
same,EC50,"HBV Mutant M204I; Hepatitis B virus, Huh-7",0.31 ± 0.05 µM
same,EC90,"HBV Mutant M204I; Hepatitis B virus, Huh-7",1 ± 0.2 µM
same,EC50,"HBV Mutant M204V; Hepatitis B virus, Huh-7",0.15 ± 0.02 µM
same,EC90,"HBV Mutant M204V; Hepatitis B virus, Huh-7",0.7 ± 0.08 µM
same,EC50,"HBV Mutant N236T; Hepatitis B virus, Huh-7",0.28 ± 0.03 µM
same,EC90,"HBV Mutant N236T; Hepatitis B virus, Huh-7",0.85 ± 0.1 µM
same,effect on intracellular HBV RNA (Northern blot hybridization),HBV RNA,did not induce a reduction
same,EC50,"HBeAg; read-out: HBeAg EC50, 2.2.15 cells",0.26 ± 0.02 µM
same,EC90,"HBeAg; read-out: HBeAg EC90, 2.2.15 cells",1.3 ± 0.1 µM
same,EC50,"HBsAg; read-out: HBsAg EC50, 2.2.15 cells",0.22 ± 0.03 µM
same,EC90,"HBsAg; read-out: HBsAg EC90, 2.2.15 cells",1 ± 0.1 µM
same,EC50,"HBcAg; read-out: HBcAg EC50, 2.2.15 cells",1.1 ± 0.1 µM
same,EC90,"HBcAg; read-out: HBcAg EC90, 2.2.15 cells",3 ± 0.2 µM
same,EC50,"[1]; Hepatitis C virus, Ava5, 72 h",0.21 ± 0.03 µM
same,EC90,"[1]; Hepatitis C virus, Ava5, 72 h",0.93 ± 0.11 µM
same,CC50 at 3 days,[2],38 ± 1.8 µM
same,antiviral activity against full length genotype 1a replicon compared with AVA5 cells (genotype 1b),[3],equivalent
same,EC50,[3]; Genotype 1a replicon,0.33 ± 0.05 µM
same,EC90,[3]; Genotype 1a replicon,1.1 ± 0.1 µM
same,CC50 at 3 days,[4],49 ± 1.5 µM
same,EC50,HCV replication,0.2 ± 0.02 µM
same,EC90,HCV replication,0.92 ± 0.1 µM
same,detection in plasma,[9],not detected
Cc1ccc(O)c(C(=O)Nc2ncc(Cl)s2)c1 [RM4850],EC50,"HBV; 2.2.15 cells, nine daily doses, read-out: Extracellular virion DNA EC50",0.33 ± 0.07 µM
same,EC90,"HBV; 2.2.15 cells, nine daily doses, read-out: Extracellular virion DNA EC90",0.83 ± 0.1 µM
same,EC50,"HBV; 2.2.15 cells, nine daily doses, read-out: Intracellular HBV RI EC50",0.9 ± 0.1 µM
same,CC50,"2.2.15 cells; confluent 2.2.15 cultures, nine daily doses, neutral red uptake",> 100 µM
same,EC90,"Wild-type HBV; Wild-type, Huh7 transient transfection",2 ± 0.3 µM
same,EC50,"Wild-type HBV; Wild-type, Huh7 transient transfection, read-out: EC50",0.73 ± 0.08 µM
same,EC50,"HBV Mutant L180M/M204V; L180M/M204V, read-out: EC50",0.87 ± 0.11 µM
same,EC90,"HBV Mutant L180M/M204V; L180M/M204V, read-out: EC90",2.1 ± 0.3 µM
same,EC50,"HBV Mutant L180M; L180M, read-out: EC50",0.83 ± 0.09 µM
same,EC90,"HBV Mutant L180M; L180M, read-out: EC90",2.2 ± 0.2 µM
same,EC50,"HBV Mutant M204I; M204I, read-out: EC50",1 ± 0.2 µM
same,EC90,"HBV Mutant M204I; M204I, read-out: EC90",2.4 ± 0.3 µM
same,EC50,"HBV Mutant M204V; M204V, read-out: EC50",0.8 ± 0.1 µM
same,EC90,"HBV Mutant M204V; M204V, read-out: EC90",2.1 ± 0.3 µM
same,EC50,"HBV Mutant N236T; N236T, read-out: EC50",0.67 ± 0.08 µM
same,EC90,"HBV Mutant N236T; N236T, read-out: EC90",2.2 ± 0.2 µM
same,differences in potency against drug-resistant viruses relative to wild-type HBV,[10],No significant differences
same,EC50,[1],> 20 µM
same,EC90,[1],> 20 µM
same,CC50,AVA5 cells,2.3 ± 0.2 µM
